Converted amounts (≈) assume the structure as drawn. Like-named read-outs stand apart in the source and are kept apart here.
Legend:
[1] = system: Mycobacterium tuberculosis H37Ra; assay: Antimycobacterial microdilution broth MIC (resazurin), Mtb H37Ra; assay type: cell-based; details: for MIC: Mycobacterium tuberculosis, H37RA, read-out: MIC Mtb H37Ra; for SI (selectivity index): SI = HepG2 IC50 (μM)/MIC MtbH37Ra (μM), calculated for compounds with MIC ≤ 31.25 μg/mL
[2] = system: Mycolicibacterium smegmatis DSM 43465; assay: Antimycobacterial microdilution broth MIC (resazurin), M. smegmatis; assay type: cell-based; details: DSM43465, read-out: MIC M. smegmatis
[3] = system: Mycolicibacterium aurum DSM 43999; assay: Antimycobacterial microdilution broth MIC (resazurin), M. aurum; assay type: cell-based; details: DSM43999, read-out: MIC M. aurum
[4] = system: HepG2 cell line; assay: Cytotoxicity CellTiter 96, HepG2; assay type: cell-based, human; details: Homo sapiens, HepG2, 24 h, 24 h incubation; ^c compound precipitated in the testing medium; ^d over the limit of tested concentrations
Description: The cytotoxicity of final compounds was determined in human hepatocellular carcinoma cell line HepG2.
Cytotoxicity determination
Human hepatocellular liver carcinoma cell line HepG2 purchased from Health Protection Agency Culture Collections (ECACC, Salisbury, UK) was cultured in MEM (Minimum Essentials Eagle Medium, Sigma–Aldrich) supplemented with 10% fetal bovine serum (PAA Laboratories, Pasching, Austria), 1% L-glutamine solution (Sigma–Aldrich) and non-essential amino acid solution (Sigma–Aldrich) in a humidified atmosphere containing 5% CO2 at 37 °C. For subculturing, the cells were harvested after trypsin/EDTA (Sigma–Aldrich) treatment at 37 °C. To evaluate cytotoxicity, the cells treated with the tested substances were used as experimental groups whereas untreated HepG2 cells served as controls. The cells were seeded in density 10,000 cells per well in a 96 well plate. The next day the cells were treated with each of the tested substances dissolved in DMSO. The tested substances were
in triplicates according to their solubility. Simultaneously, the controls representing 100% cell viability, 0% cell viability (the cells treated with 10% DMSO), no cell control and vehiculum controls were also
the reagent from the kit CellTiter 96 AQueous One Solution Cell Proliferation Assay (CellTiter 96; PROMEGA, Fitchburg, USA) was added. After 2h incubation at 37 °C, absorbance of samples was recorded at 490 nm (TECAN, Infinita M200, Austria). A standard toxicological parameter IC50 was calculated by nonlinear regression from a semilogarithmic plot of incubation concentration versus percentage of absorbance relative to untre ated controls using GraphPad Prism 8 software.

[5] = system: Staphylococcus aureus CCM 4223, ATCC 29213; assay: Antibacterial microdilution broth MIC, SA; assay type: cell-based; details: Staphylococcus aureus
[6] = system: Staphylococcus aureus subsp. aureus CCM 4750, ATCC 43300 (MRSA); assay: Antibacterial microdilution broth MIC, MRSA; assay type: cell-based; details: Staphylococcus aureus
[7] = system: Staphylococcus epidermidis CCM 4418, ATCC 12228; assay: Antibacterial microdilution broth MIC, SE; assay type: cell-based
[8] = system: Enterococcus faecalis CCM 4224, ATCC 29212; assay: Antibacterial microdilution broth MIC, EF; assay type: cell-based
[9] = system: Escherichia coli CCM 3954, ATCC 25922; assay: Antibacterial microdilution broth MIC, EC; assay type: cell-based
[10] = system: Acinetobacter baumannii DSM 30007, ATCC 19606; assay: Antibacterial microdilution broth MIC, ACI; assay type: cell-based
[11] = system: Pseudomonas aeruginosa CCM 3955, ATCC 27853; assay: Antibacterial microdilution broth MIC, PA; assay type: cell-based
[12] = system: Candida albicans CCM 8320, ATCC 24433; assay: Antifungal microdilution broth MIC, CA
[13] = system: Candida krusei CCM 8271, ATCC 6258; assay: Antifungal microdilution broth MIC, CK; details: Pichia kudriavzevii
[14] = system: Candida parapsilosis CCM 8260, ATCC 22019; assay: Antifungal microdilution broth MIC, CP; details: Lodderomyces parapsilosis
[15] = system: Candida tropicalis CCM 8264, ATCC 750; assay: Antifungal microdilution broth MIC, CT
[16] = system: Aspergillus fumigatus ATCC 204305; assay: Antifungal microdilution broth MIC, AF
[17] = system: Lichtheimia corymbifera CCM 8077; assay: Antifungal microdilution broth MIC, LC
[18] = system: Trichophyton interdigitale CCM 8377, ATCC 9533; assay: Antifungal microdilution broth MIC, TI; details: Trichophyton interdigitale
[19] = system: Aspergillus flavus CCM 8363; assay: Antifungal microdilution broth MIC, AFla
[20] = system: Klebsiella pneumoniae CCM 4415, ATCC 10031; assay: Antibacterial microdilution broth MIC, KP
[21] = ATCC204305, 24 h, read-out: MIC AF 24h
[22] = ATCC204305, 48 h, read-out: MIC AF 48h
[23] = CCM8077, 24 h, read-out: MIC LC 24h
[24] = CCM8077, 48 h, read-out: MIC LC 48h
[25] = CCM8363, 24 h, read-out: MIC AFla 24h
[26] = CCM8363, 48 h, read-out: MIC AFla 48h

Row | SMILES | MIC ([1]; Calculated from MIC (μg/mL)) | MIC [1] | MIC [2] | MIC [3] | IC50 [4] | MIC ([5]; 24 h, read-out: MIC SA 24h) | MIC ([5]; 48 h, read-out: MIC SA 48h) | MIC ([6]; 24 h, read-out: MIC MRSA 24h) | MIC ([6]; 48 h, read-out: MIC MRSA 48h) | MIC ([7]; 24 h, read-out: MIC SE 24h) | MIC ([7]; 48 h, read-out: MIC SE 48h) | MIC ([8]; 24 h, read-out: MIC EF 24h) | MIC ([8]; 48 h, read-out: MIC EF 48h) | MIC ([9]; 24 h, read-out: MIC EC 24h) | MIC ([9]; 48 h, read-out: MIC EC 48h) | MIC ([10]; 24 h, read-out: MIC ACI 24h) | MIC ([10]; 48 h, read-out: MIC ACI 48h) | MIC ([11]; 24 h, read-out: MIC PA 24h) | MIC ([11]; 48 h, read-out: MIC PA 48h) | MIC ([12]; 24 h, read-out: MIC CA 24h) | other results
1 | O=C(Cc1ccccc1C(F)(F)F)Nc1ccc(Cl)cn1 [Compound 23] | 99.3 µM | 31.2 µg/mL | > 500 µg/mL | > 500 µg/mL | 201 µM | > 500 µM | > 500 µM | > 500 µM | > 500 µM | > 500 µM | > 500 µM | > 500 µM | > 500 µM | > 500 µM | > 500 µM | > 500 µM | > 500 µM | > 500 µM | > 500 µM | > 500 µM | SI (selectivity index) [1]: 2.0; MIC ([12]; 48 h, read-out: MIC CA 48h): > 500 µM; MIC ([13]; 24 h, read-out: MIC CK 24h): > 500 µM; MIC ([13]; 48 h, read-out: MIC CK 48h): > 500 µM; MIC ([14]; 24 h, read-out: MIC CP 24h): > 500 µM; MIC ([14]; 48 h, read-out: MIC CP 48h): > 500 µM; MIC ([15]; 24 h, read-out: MIC CT 24h): > 500 µM; MIC ([15]; 48 h, read-out: MIC CT 48h): > 500 µM; MIC [16, 21]: > 500 µM; MIC [16, 22]: > 500 µM; MIC [17, 23]: > 500 µM; MIC [17, 24]: > 500 µM; MIC ([18]; 72 h, read-out: MIC TI 72h): 500 µM (≈ 157 µg/mL); MIC ([18]; 120 h, read-out: MIC TI 120h): 500 µM (≈ 157 µg/mL); MIC [19, 25]: > 500 µM; MIC [19, 26]: > 500 µM; MIC KP 24h [20]: > 500 µM; MIC KP 48h [20]: > 500 µM
2 | O=C(Cc1cccc(C(F)(F)F)c1)Nc1ccccn1 [Compound 25] | 223 µM | 62.5 µg/mL | > 500 µg/mL | 125 µg/mL (≈ 446 µM) | 724 µM | > 500 µM | > 500 µM | > 500 µM | > 500 µM | > 500 µM | > 500 µM | > 500 µM | > 500 µM | > 500 µM | > 500 µM | > 500 µM | > 500 µM | > 500 µM | > 500 µM | > 500 µM | MIC ([12]; 48 h, read-out: MIC CA 48h): > 500 µM; MIC ([13]; 24 h, read-out: MIC CK 24h): > 500 µM; MIC ([13]; 48 h, read-out: MIC CK 48h): > 500 µM; MIC ([14]; 24 h, read-out: MIC CP 24h): > 500 µM; MIC ([14]; 48 h, read-out: MIC CP 48h): > 500 µM; MIC ([15]; 24 h, read-out: MIC CT 24h): > 500 µM; MIC ([15]; 48 h, read-out: MIC CT 48h): > 500 µM; MIC [16, 21]: > 500 µM; MIC [16, 22]: > 500 µM; MIC [17, 23]: > 500 µM; MIC [17, 24]: > 500 µM; MIC ([18]; 72 h, read-out: MIC TI 72h): 500 µM (≈ 140 µg/mL); MIC ([18]; 120 h, read-out: MIC TI 120h): 500 µM (≈ 140 µg/mL); MIC [19, 25]: > 500 µM; MIC [19, 26]: > 500 µM; MIC KP 24h [20]: > 500 µM; MIC KP 48h [20]: > 500 µM
3 | O=C(Cc1cccc(C(F)(F)F)c1)Nc1cccc(Cl)n1 [Compound 27] | 99.3 µM | 31.2 µg/mL | > 500 µg/mL | 15.6 µg/mL (≈ 49.7 µM) | 146 µM | > 500 µM | > 500 µM | > 500 µM | > 500 µM | 250 µM (≈ 78.7 µg/mL) | 250 µM (≈ 78.7 µg/mL) | > 500 µM | > 500 µM | > 500 µM | > 500 µM | > 500 µM | > 500 µM | > 500 µM | > 500 µM | > 500 µM | SI (selectivity index) [1]: 1.5; MIC ([12]; 48 h, read-out: MIC CA 48h): > 500 µM; MIC ([13]; 24 h, read-out: MIC CK 24h): > 500 µM; MIC ([13]; 48 h, read-out: MIC CK 48h): > 500 µM; MIC ([14]; 24 h, read-out: MIC CP 24h): > 500 µM; MIC ([14]; 48 h, read-out: MIC CP 48h): > 500 µM; MIC ([15]; 24 h, read-out: MIC CT 24h): > 500 µM; MIC ([15]; 48 h, read-out: MIC CT 48h): > 500 µM; MIC [16, 21]: > 500 µM; MIC [16, 22]: > 500 µM; MIC [17, 23]: > 500 µM; MIC [17, 24]: > 500 µM; MIC ([18]; 72 h, read-out: MIC TI 72h): > 500 µM; MIC ([18]; 120 h, read-out: MIC TI 120h): > 500 µM; MIC [19, 25]: > 500 µM; MIC [19, 26]: > 500 µM; MIC KP 24h [20]: > 500 µM; MIC KP 48h [20]: > 500 µM
4 | O=C(Cc1ccc(C(F)(F)F)cc1)Nc1ccccn1 [Compound 28] | 112 µM | 31.2 µg/mL | > 500 µg/mL | > 500 µg/mL | 408 µM | > 500 µM | > 500 µM | > 500 µM | > 500 µM | > 500 µM | > 500 µM | > 500 µM | > 500 µM | > 500 µM | > 500 µM | > 500 µM | > 500 µM | > 500 µM | > 500 µM | > 500 µM | SI (selectivity index) [1]: 3.7; MIC ([12]; 48 h, read-out: MIC CA 48h): > 500 µM; MIC ([13]; 24 h, read-out: MIC CK 24h): > 500 µM; MIC ([13]; 48 h, read-out: MIC CK 48h): > 500 µM; MIC ([14]; 24 h, read-out: MIC CP 24h): > 500 µM; MIC ([14]; 48 h, read-out: MIC CP 48h): > 500 µM; MIC ([15]; 24 h, read-out: MIC CT 24h): > 500 µM; MIC ([15]; 48 h, read-out: MIC CT 48h): > 500 µM; MIC [16, 21]: > 500 µM; MIC [16, 22]: > 500 µM; MIC [17, 23]: > 500 µM; MIC [17, 24]: > 500 µM; MIC ([18]; 72 h, read-out: MIC TI 72h): > 500 µM; MIC ([18]; 120 h, read-out: MIC TI 120h): > 500 µM; MIC [19, 25]: > 500 µM; MIC [19, 26]: > 500 µM; MIC KP 24h [20]: > 500 µM; MIC KP 48h [20]: > 500 µM
